Molecules are shown by their SMILES.

Data set [1] can be described thus: Plasma protein binding by equilibrium dialysis, human. Format: in vitro ADME. Conditions: read-out: Plasma Protein Binding (Bound %) Human (converted). The procedure: (§1) In vitro pharmacokinetic analyses were performed in duplicate using standard methods by WuXi AppTec Co. Ltd. (Shanghai, China). Plasma protein binding was measured by equilibrium dialysis; % bound=(1−[free compound in dialysate]/[total compound in retentate])×100. […] Liver microsome stability of 1 uM compounds in liver microsomes (0.5 mg/ml) after 0, 5, 10, 20, 30, 60 min. incubation was assessed by LC/MS/MS of reaction extracts.

A short description of data set [2]: Plasma protein binding by equilibrium dialysis, mouse. Format: in vitro ADME. The conditions noted are these: read-out: Plasma Protein Binding (Bound %) Mouse (converted). The method, then:
as §1
A general note: Equilibrium dialysis compares concentrations on both sides of a semipermeable membrane.

For data set [3], the system named is mitofusin. The data set is described as follows: Dose-response of mitofusin agonist fusogenicity (mitochondrial aspect ratio). The conditions noted are these: Mfn1-KO or Mfn2-KO MEFs; mitochondrial aspect ratio indexed to maximal response of Compound 22; overnight. It counts as cell-based, mouse. The method, then:
Wild-type MEFs were prepared from E10.5 c57/bl6 mouse embryos. SV-40 T antigen-immortalized MFN1 null (CRL-2992), MFN2 null (CRL-2993) and MFN1/MFN2 double null MEFs (CRL-2994) were purchased from ATCC.
Mitochondria were then stained with MitoTracker Orange (200 nM; M7510; Invitrogen, Carlsbad, CA, USA). Nuclei were stained with Hoescht ([…]; Invitrogen, Thermo Fisher Scientific Cat: #1-3570). […] Response curves were interpolated using the sigmoidal model using Prism 8 software.

Data set [4] in a line: Liver microsome stability, human. It counts as in vitro ADME. Conditions: 1 uM compound, human liver microsomes 0.5 mg/ml; read-out: Liver Microsomes (t1/2, minutes) Human. The procedure: as §1
A short description of data set [5]: Liver microsome stability, mouse. Conditions: 1 uM compound, mouse liver microsomes 0.5 mg/ml; read-out: Liver Microsomes (t1/2, minutes) Mouse. Format: in vitro ADME. The procedure: as §1
(Liver microsomes are a subcellular fraction often used to study metabolism.)

In general, EC50 refers to the concentration giving half of the maximal effect. Turning to `O=C(N[C@H]1CC[C@H](O)CC1)C1CCC(CCCc2ccccc2)C1` (stereo partly drawn) [15 (Exp.), N-(4-hydroxycyclohexyl)-3-(3-phenylpropyl)cyclopentane-1-carboxamide], the fraction unbound in data set [1] was 0.007; in data set [2] it was 0.012. For the same compound, in data set [3], the EC50 is 0.0153 µM.
For the compound `O=C(CCCCCc1ccccc1)NC1CCOCC1` [23 (Comp.)], the half-life at 1 uM in data set [4] stood at 23.7 min; in data set [5], 112 min. Also, the EC50 in data set [3] was found to be 0.0063 µM.

The values are drawn from patent US20250091983A1, “CYCLOPENTANE AND CYCLOHEXANE VARIANTS OF 6-PHENYLHEXANAMIDE MITOFUSIN ACTIVATORS AND METHODS FOR USE THEREOF” (MITOCHONDRIA EMOTION, INC., priority 2021, published 2025).
